Data reported in ChEMBL document CHEMBL1126982, “Design and synthesis of a DNA-cleaving metallopeptide” (Bioorg Med Chem Lett, 1993).

Columns and labels:
Type in all cases: nucleic-acid assay
[1] = tested on: Nucleic Acid; assay: Cu(II) complex for cleavage of phi X174 RF plasmid DNA from intact form I to nicked form II at 250 uM compound and 100 uM Cu(II)
[2] = tested on: Nucleic Acid; assay: Cu(II) complex for cleavage of phi X174 RF plasmid DNA from intact form I to nicked form II at 350 uM of Cu(II)
[3] = tested on: Nucleic Acid; assay: Cu(II) complex for cleavage of phi X174 RF plasmid DNA from intact form I to nicked form II at 250 uM compound and 200 uM Cu(II)

Substance: H-GGHGYSPTSPSYGK-NH2
- Activity [1]: 50%
- Activity [2]: > 90%
- Activity [3]: 70%
